# Laboratory results reported in BindingDB's records for doi:10.3109/14756366.2010.550890 (Jamia Hamdard University, 2011).
# Assays:
# [1] = molecular target: T1, Prostaglandin G/H synthase 1 (Ovis aries, UniProt P05979); assay: COX Inhibition Assay; details: pH 8; 37 °C
# T1 sequence (P05979 whole entry): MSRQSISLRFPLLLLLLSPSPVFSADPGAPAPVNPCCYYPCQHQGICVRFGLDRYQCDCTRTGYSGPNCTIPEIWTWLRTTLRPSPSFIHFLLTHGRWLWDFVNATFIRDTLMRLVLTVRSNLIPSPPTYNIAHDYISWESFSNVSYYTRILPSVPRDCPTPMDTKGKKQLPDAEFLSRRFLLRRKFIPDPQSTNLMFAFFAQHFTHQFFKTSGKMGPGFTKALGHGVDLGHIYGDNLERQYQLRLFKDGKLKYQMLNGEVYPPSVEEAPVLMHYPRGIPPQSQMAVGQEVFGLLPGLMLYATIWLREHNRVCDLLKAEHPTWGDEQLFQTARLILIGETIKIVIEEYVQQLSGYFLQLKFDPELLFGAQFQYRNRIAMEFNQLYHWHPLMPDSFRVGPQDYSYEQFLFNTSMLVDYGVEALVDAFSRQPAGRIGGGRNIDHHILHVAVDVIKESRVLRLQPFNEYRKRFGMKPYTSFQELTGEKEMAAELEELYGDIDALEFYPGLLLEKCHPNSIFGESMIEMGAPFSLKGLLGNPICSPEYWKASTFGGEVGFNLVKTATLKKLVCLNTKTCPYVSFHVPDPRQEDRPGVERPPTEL
# Procedure: (§1) Stock solutions of test compounds were dissolved in a minimum volume of dimethyl sulphoxide (DMSO) toobtain 0.001, 0.01, 0.1, 1, 10, 100, and 500 μM in a final volume of 1 mL. In brief, haematin reconstituted purified COX-1 and COX-2 enzymes in a reaction buffer containing Tris-hydrochloric acid (HCl) (0.1 M, pH 8.0), 5 mM ethylenediaminetetraacetic acid (EDTA), and 2 mM phenol were pre-incubated at room temperature for 1 h with test compounds followed by the addition of AA (100 μM)for 2 min at 37°C. Reactions were terminated by adding 50 μL of 1 M HCl followed by the addition of 100 μL of stannous chloride.
# [2] = molecular target: T2, Prostaglandin G/H synthase 2 (Ovis aries, UniProt P79208); assay: COX Inhibition Assay; details: pH 8; 37 °C
# T2 sequence (P79208 whole entry): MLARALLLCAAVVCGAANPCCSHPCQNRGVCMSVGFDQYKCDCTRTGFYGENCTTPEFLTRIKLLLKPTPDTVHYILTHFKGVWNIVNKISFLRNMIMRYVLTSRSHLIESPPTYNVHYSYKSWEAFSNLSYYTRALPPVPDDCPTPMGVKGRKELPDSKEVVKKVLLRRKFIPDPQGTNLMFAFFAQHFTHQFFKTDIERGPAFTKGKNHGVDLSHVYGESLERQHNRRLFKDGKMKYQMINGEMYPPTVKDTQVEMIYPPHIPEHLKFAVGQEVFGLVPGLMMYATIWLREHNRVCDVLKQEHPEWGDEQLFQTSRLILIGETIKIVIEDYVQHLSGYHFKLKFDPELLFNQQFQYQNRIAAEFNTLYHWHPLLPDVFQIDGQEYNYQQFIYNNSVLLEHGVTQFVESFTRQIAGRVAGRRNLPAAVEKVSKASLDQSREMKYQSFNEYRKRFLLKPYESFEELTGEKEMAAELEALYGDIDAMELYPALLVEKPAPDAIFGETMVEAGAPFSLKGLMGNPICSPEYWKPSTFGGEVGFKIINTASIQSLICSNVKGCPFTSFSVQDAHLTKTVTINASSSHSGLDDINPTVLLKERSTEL
# Procedure: as §1
SMILES,IC50 [1] [µM],IC50 [2] [µM]
"O=c1oc2ccccc2cc1-c1nnc(-c2ccccc2)o1 [3-(5-Phenyl-[1,3,4]oxadiazol-2-yl)-chromen-2-one (4a)]",< 100,8.7
"Cc1ccc(-c2nnc(-c3cc4ccccc4oc3=O)o2)cc1 [3-(5-p-Tolyl-[1,3,4]oxadiazol-2-yl)-chromen-2-one (4c)]",> 100,1.18
"O=c1oc2ccccc2cc1-c1nnc(-c2ccc(Cl)cc2Cl)o1 [3-[5-(2,4-Dichloro-phenyl)-[1,3,4]oxadiazol-2-yl]-chromen-2-one (4e)]",41.6,0.4

# The remaining lines, values ahead:
IC50 [1] [µM],IC50 [2] [µM],SMILES
> 100,36.6,"Cc1ccccc1Nc1nnc(-c2cc3ccccc3oc2=O)o1 [3-(5-o-Tolylamino-[1,3,4]oxadiazol-2-yl)-chromen-2-one (6e)]"
35,1.2,"O=c1oc2ccccc2cc1-c1nnc(-c2ccc(Cl)cc2)o1 [3-[5-(4-Chloro-phenyl)-[1,3,4]oxadiazol-2-yl]-chromen-2-one (4b)]"
> 100,> 100,"O=c1oc2ccccc2cc1-c1nnc(Nc2ccc(Cl)cc2)o1 [3-[5-(4-Chloro-phenylamino)-[1,3,4]oxadiazol-2-yl]-chromen-2-one (6b)]"
> 100,> 100,"O=C(Nc1nnc(-c2cc3ccccc3oc2=O)o1)c1ccc(Cl)cc1 [4-Chloro-N-[5-(2-oxo-2H-chromen-3-yl)-[1,3,4]oxadiazol-2-yl]-benzamide (8b)]"
